The subject of test [1] is HCV replicon I389luc-ubi-neo/NS3-3′/ET in ET (Huh-lucubineo-ET) cells. Nature of the test: Replicon assay (Biological Example 2), luciferase readout. Format: cell-based. The following applies: Hepatitis C virus. The procedure, abridged:
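EC50 values come from Hill fits of % inhibition of replicon-driven firefly luciferase, relative to no-compound wells. Compounds were serially diluted (10 points, 3-fold, 0.1 nM–50 μM final, 0.5% DMSO) onto ET replicon cells and read after 48 h.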

For the next test, the target named is T1, HCV polymerase (Hepatitis C virus genotype 1b, UniProt Q9WMX2).
T1 construct: (His)6 (C); made in house; host or cells: XL-1 cells (E. coli, by own knowledge)
Nature of the test: Polymerase assay of Biological Example 1 (IC50 values of Table 3). Format: biochemical. The conditions noted are these: IC50 values of Table 3, polymerase assay of Biological Example 1; read-out: NS5B-enzyme3.

Setting [2] is: ET cells, luciferase activity 48 hours after compound.

For 24 compounds, IC50 results are on record in patent US9498483B2, “2,3,5-trisubstituted thiophene compounds and uses thereof” (priority 2010, dated 2016).

Regarding `N[C@@H]1CCN(c2ccc(S(=O)(=O)N3CC(=O)N(c4cc(-c5ccccc5)sc4C(=O)O)[C@H](C4CCCCC4)C3)cn2)C1` [Compound 141, 3-{(R)-4-[6-((R)-3-Amino-pyrrolidin-1-yl)-pyridine-3-sulfonyl]-2-cyclohexyl-6-oxo-piperazin-1-yl}-5-phenyl-thiophene-2-carboxylic acid], the IC50 was at most 100 nM in test [1] (setting [2]) and 2 nM on HCV polymerase.
Consider `O=C(O)c1sc(-c2ccccc2)cc1N1C(=O)CN(S(=O)(=O)c2ccc(N3CC[C@H](O)C3)nc2)CC1C1CCCCC1` (stereo partly drawn) [Compound 124, 3-{2-Cyclohexyl-4-[6-((S)-3-hydroxy-pyrrolidin-1-yl)-pyridine-3-sulfonyl]-6-oxo-piperazin-1-yl}-5-phenyl-thiophene-2-carboxylic acid], for which the IC50 in test [1] (between 100 nM and 5.0 uM) was 100 to 5000 nM; at HCV polymerase, 4 nM.
As for `CC(C)(C)C#Cc1cc(N2C(=O)CNCC2C2CCCCC2)c(C(=O)O)s1` (stereo not drawn) [Compound 175, 3-(2-Cyclohexyl-6-oxo-piperazin-1-yl)-5-(3,3-dimethyl-but-1-ynyl)-thiophene-2-carboxylic acid], the IC50 in test [1] (setting [2]) was at least 5000 nM; at HCV polymerase it was over 10000 nM.
As to `C[C@@H]1CN(c2ccc(S(=O)(=O)N3CC(=O)N(c4cc(-c5ccccc5)sc4C(=O)O)[C@H](C4CCCCC4)C3)cn2)CCN1` [Compound 140, 3-{(R)-2-Cyclohexyl-4-[6-((R)-3-methyl-piperazin-1-yl)-pyridine-3-sulfonyl]-6-oxo-piperazin-1-yl}-5-phenyl-thiophene-2-carboxylic acid], the figures for the IC50 (in test [1] (setting [2]); on HCV polymerase) were at most 100 nM and 1 nM, respectively.
Turning to `CC(C)(C)C#Cc1cc(N2C(=O)CN(S(=O)(=O)c3c(Cl)cccc3Cl)C[C@H]2C2CCCCC2)c(C(=O)O)s1` [Compound 282, 3-[(R)-2-Cyclohexyl-4-(2,6-dichloro-benzenesulfonyl)-6-oxo-piperazin-1-yl]-5-(3,3-dimethyl-but-1-ynyl)-thiophene-2-carboxylic acid], the IC50 is 100 to 5000 nM in test [1] (between 100 nM and 5.0 uM); 31 nM at HCV polymerase.
With `CN(C)CCNc1ccc(S(=O)(=O)N2CC(=O)N(c3cc(-c4ccccc4)sc3C(=O)O)C(C3CCCCC3)C2)cn1` (stereo not drawn) [Compound 81, 3-{2-Cyclohexyl-4-[6-(2-dimethylamino-ethylamino)-pyridine-3-sulfonyl]-6-oxo-piperazin-1-yl}-5-phenyl-thiophene-2-carboxylic acid], the IC50 in test [1] (setting [2]) is at most 100 nM; on HCV polymerase it was 9 nM.
On the same counts, the results for `Cc1noc(C)c1S(=O)(=O)N1CC(=O)N(c2cc(-c3ccccc3)sc2C(=O)O)C(C2CCCCC2)C1` (stereo not drawn) [Compound 32, 3-[2-Cyclohexyl-4-(3,5-dimethyl-isoxazole-4-sulfonyl)-6-oxo-piperazin-1-yl]-5-phenyl-thiophene-2-carboxylic acid] are at least 5000 nM and 241 nM.
On to `Cc1ccc(-c2cc(N3C(=O)CCCC3C3CCCCC3)c(C(=O)O)s2)cc1` (stereo not drawn) [Compound 71, 3-(2-Cyclohexyl-6-oxo-piperidin-1-yl)-5-p-tolyl-thiophene-2-carboxylic acid], for which the IC50 in test [1] (between 100 nM and 5.0 uM) was 100 to 5000 nM; on HCV polymerase, 52 nM.
Consider `O=C(O)c1sc(-c2ccccc2)cc1N1C(=O)CN(S(=O)(=O)c2ccc(-c3ccccc3)nc2)C[C@H]1C1CCCCC1` [Compound 178, 3-[(R)-2-Cyclohexyl-6-oxo-4-(6-phenyl-pyridine-3-sulfonyl)-piperazin-1-yl]-5-phenyl-thiophene-2-carboxylic acid], for which the IC50 was 100 to 5000 nM in test [1] (between 100 nM and 5.0 uM); 1 nM at HCV polymerase.
For `O=C(O)c1sc(-c2ccccc2)cc1N1C(=O)CNC[C@H]1C1CCCCC1` [Compound 15, 3-((R)-2-Cyclohexyl-6-oxo-piperazin-1-yl)-5-phenyl-thiophene-2-carboxylic acid], the IC50 in test [1] (setting [2]) was at least 5000 nM; at HCV polymerase, 73.5 nM.
As for `CC(C)(C)C#Cc1cc(N2C(=O)CN(S(=O)(=O)c3ccc(OC(F)(F)F)cc3)C[C@H]2C2CCCCC2)c(C(=O)O)s1` [Compound 223, 3-[(R)-2-Cyclohexyl-6-oxo-4-(4-trifluoromethoxy-benzenesulfonyl)-piperazin-1-yl]-5-(3,3-dimethyl-but-1-ynyl)-thiophene-2-carboxylic acid], the IC50 in test [1] (between 100 nM and 5.0 uM) was 100 to 5000 nM; at HCV polymerase it was 9 nM.
On to `O=C(O)c1sc(-c2ccccc2)cc1N1C(=O)CN(S(=O)(=O)c2ccc(-c3ccc(CN4CCOCC4)cc3)nc2)C[C@H]1C1CCCCC1` [Compound 208, 3-{(R)-2-Cyclohexyl-4-[6-(4-morpholin-4-ylmethyl-phenyl)-pyridine-3-sulfonyl]-6-oxo-piperazin-1-yl}-5-phenyl-thiophene-2-carboxylic acid], for which the IC50 is at most 100 nM in test [1] (setting [2]) and 1.4 nM at HCV polymerase.
On the same counts, the results for `Cc1ccc(-c2cc(N3C(=O)C(C)(O)CCC3C3CCCCC3)c(C(=O)O)s2)cc1` (stereo not drawn) [Compound 5, 3-(6-Cyclohexyl-3-hydroxy-3-methyl-2-oxo-piperidin-1-yl)-5-p-tolyl-thiophene-2-carboxylic acid] are at most 100 nM and 52 nM.
Turning to `O=C(O)c1sc(-c2ccccc2)cc1N1C(=O)CN(S(=O)(=O)c2ccc(N3CC[C@@H](F)C3)nc2)CC1C1CCCCC1` (stereo partly drawn) [Compound 120, 3-{2-Cyclohexyl-4-[6-((R)-3-fluoro-pyrrolidin-1-yl)-pyridine-3-sulfonyl]-6-oxo-piperazin-1-yl}-5-phenyl-thiophene-2-carboxylic acid], the figures for the IC50 (in test [1] (setting [2]); at HCV polymerase) were at most 100 nM and 6 nM, respectively.
Take `Cc1cccc(S(=O)(=O)N2CC(=O)N(c3cc(-c4ccccc4)sc3C(=O)O)C(C3CCCCC3)C2)c1` (stereo not drawn) [Compound 49, 3-[2-Cyclohexyl-6-oxo-4-(toluene-3-sulfonyl)-piperazin-1-yl]-5-phenyl-thiophene-2-carboxylic acid]: the IC50 in test [1] (between 100 nM and 5.0 uM) is 100 to 5000 nM; at HCV polymerase, 15 nM.
For the compound `O=C(O)c1sc(-c2ccc(F)cc2)cc1N1C(=O)CN(S(=O)(=O)c2ccc(N3CCCC3)nc2)C[C@H]1C1CCCCC1` [Compound 232, 3-[(R)-2-Cyclohexyl-6-oxo-4-(6-pyrrolidin-1-yl-pyridine-3-sulfonyl)-piperazin-1-yl]-5-(4-fluoro-phenyl)-thiophene-2-carboxylic acid], the IC50 is at most 100 nM in test [1] (setting [2]) and 1 nM at HCV polymerase.
Regarding `C[C@H]1CN(c2ccc(S(=O)(=O)N3CC(=O)N(c4cc(-c5ccccc5)sc4C(=O)O)[C@H](C4CCCCC4)C3)cn2)CCN1C(=O)OC(C)(C)C` [Compound 162, (S)-4-{5-[(R)-4-(2-Carboxy-5-phenyl-thiophen-3-yl)-3-cyclohexyl-5-oxo-piperazine-1-sulfonyl]-pyridin-2-yl}-2-methyl-piperazine-1-carboxylic acid tert-butyl ester], the IC50 in test [1] (setting [2]) was at most 100 nM; at HCV polymerase, 2 nM.
Take `COc1ccccc1S(=O)(=O)N1CC(=O)N(c2cc(C#CC(C)(C)C)sc2C(=O)O)[C@H](C2CCCCC2)C1` [Compound 258, 3-[(R)-2-Cyclohexyl-4-(2-methoxy-benzenesulfonyl)-6-oxo-piperazin-1-yl]-5-(3,3-dimethyl-but-1-ynyl)-thiophene-2-carboxylic acid]: the values for the IC50 (in test [1] (setting [2]); at HCV polymerase) were at most 100 nM and 7 nM, respectively.
As for `O=C(O)c1sc(-c2ccccc2)cc1N1C(=O)CN(S(=O)(=O)c2ccc(N3CCNCC3)nc2)CC1C1CCCCC1` (stereo not drawn) [Compound 88, 3-[2-Cyclohexyl-6-oxo-4-(6-piperazin-1-yl-pyridine-3-sulfonyl)-piperazin-1-yl]-5-phenyl-thiophene-2-carboxylic acid], the IC50 is at most 100 nM in test [1] (setting [2]) and 2.13 nM on HCV polymerase.
`CC(C)(C)C#Cc1cc(N2C(=O)CN(S(=O)(=O)c3ccccc3OC(F)(F)F)C[C@H]2C2CCCCC2)c(C(=O)O)s1` [Compound 249, 3-[(R)-2-Cyclohexyl-6-oxo-4-(2-trifluoromethoxy-benzenesulfonyl)-piperazin-1-yl]-5-(3,3-dimethyl-but-1-ynyl)-thiophene-2-carboxylic acid]: the IC50 was 100 to 5000 nM in test [1] (between 100 nM and 5.0 uM); 19 nM at HCV polymerase.
As to `CCOc1ccc(-c2cc(N3C(=O)CCCC3C3CCCCC3)c(C(=O)O)s2)cc1` (stereo not drawn) [Compound 116, 3-(2-Cyclohexyl-6-oxo-piperidin-1-yl)-5-(4-ethoxy-phenyl)-thiophene-2-carboxylic acid], the IC50 is 100 to 5000 nM in test [1] (between 100 nM and 5.0 uM); 64 nM on HCV polymerase.
`CN(c1ccc(S(=O)(=O)N2CC(=O)N(c3cc(-c4ccccc4)sc3C(=O)O)C(C3CCCCC3)C2)cn1)C1CCCCC1` (stereo not drawn) [Compound 91, 3-{2-Cyclohexyl-4-[6-(cyclohexyl-methyl-amino)-pyridine-3-sulfonyl]-6-oxo-piperazin-1-yl}-5-phenyl-thiophene-2-carboxylic acid]: the values for the IC50 (in test [1] (setting [2]); on HCV polymerase) were at most 100 nM and 12 nM, respectively.
For the compound `C[C@@H]1CCCN1c1ccc(S(=O)(=O)N2CC(=O)N(c3cc(-c4ccc(F)cc4)sc3C(=O)O)[C@H](C3CCCCC3)C2)cn1` [Compound 185, 3-{(R)-2-Cyclohexyl-4-[6-((R)-2-methyl-pyrrolidin-1-yl)-pyridine-3-sulfonyl]-6-oxo-piperazin-1-yl}-5-(4-fluoro-phenyl)-thiophene-2-carboxylic acid], the results for the IC50 (in test [1] (setting [2]); at HCV polymerase) were at most 100 nM and 1 nM, respectively.
In the case of `Cc1ccc(-c2cc(N3C(=O)CN(S(=O)(=O)c4ccc(C(C)(C)C)nc4)C[C@H]3C3CCCCC3)c(C(=O)O)s2)cc1` [Compound 303, 3-[(R)-4-(6-tert-Butyl-pyridine-3-sulfonyl)-2-cyclohexyl-6-oxo-piperazin-1-yl]-5-p-tolyl-thiophene-2-carboxylic acid], the IC50 in test [1] (setting [2]) is at most 100 nM; on HCV polymerase, 4 nM.
